In patent US10350271B2, “Lipidated peptides for lowering blood glucose” (USTAV ORGANICKE CHEMIE A BIOCHEMIE AKADEMIE VED CR, V.V.I., priority 2014, dated 2019):
Square brackets hold non-standard residues; d marks the D form. Peptide text beside a SMILES is read from it. * marks the point of attachment. 1Nal = N[C@@H](Cc1cccc2ccccc12)C(=O)O; Stearoyl = CCCCCCCCCCCCCCCCCC(=O)*; Palmitoyl = CCCCCCCCCCCCCCCC(=O)*; Myristoyl = CCCCCCCCCCCCCC(=O)*; Lauroyl = CCCCCCCCCCCC(=O)*; Nle = CCCC[C@H](N)C(=O)O

How the values were obtained:
rat PrRP receptor = target: T1, rat PrRP receptor (Rattus norvegicus, UniProt Q64121); test: Competitive binding in RC-4B/C rat pituitary cells (125I-rat PrRP31); details: affinity relative to PrRP31
T1 construct: host or cells: RC-4B/C rat pituitary cell line
T1 sequence (Q64121 1-370): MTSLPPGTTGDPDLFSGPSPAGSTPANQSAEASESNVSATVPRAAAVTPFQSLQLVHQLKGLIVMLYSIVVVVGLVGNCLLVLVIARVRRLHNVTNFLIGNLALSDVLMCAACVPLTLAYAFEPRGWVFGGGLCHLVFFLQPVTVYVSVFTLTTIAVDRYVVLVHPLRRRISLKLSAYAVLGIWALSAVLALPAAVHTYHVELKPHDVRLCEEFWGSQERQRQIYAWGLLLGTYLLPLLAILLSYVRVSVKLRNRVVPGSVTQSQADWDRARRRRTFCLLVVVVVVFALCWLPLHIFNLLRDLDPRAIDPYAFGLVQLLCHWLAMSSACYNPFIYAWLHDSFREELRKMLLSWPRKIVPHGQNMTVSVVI
Summary of the method: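 Intact rat pituitary RC-4B/C cells incubated 60 min at room temperature with […] rat 125I-PrRP31 and unlabeled analog (10^−11 to 10^−4 mol·l^−1) in HEPES pH 7.4 buffer. Cell-bound radioactivity γ-counted after NaOH lysis; one-site competition fit.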

[1] = target: T2, human PrRP receptor GPR10 (Homo sapiens, UniProt P49683); test: Competitive binding in CHO cells transfected with human GPR10 (human 125I-PrRP31); details: affinity relative to PrRP31
T2 construct: host or cells: CHO cells
T2 sequence (P49683 1-370): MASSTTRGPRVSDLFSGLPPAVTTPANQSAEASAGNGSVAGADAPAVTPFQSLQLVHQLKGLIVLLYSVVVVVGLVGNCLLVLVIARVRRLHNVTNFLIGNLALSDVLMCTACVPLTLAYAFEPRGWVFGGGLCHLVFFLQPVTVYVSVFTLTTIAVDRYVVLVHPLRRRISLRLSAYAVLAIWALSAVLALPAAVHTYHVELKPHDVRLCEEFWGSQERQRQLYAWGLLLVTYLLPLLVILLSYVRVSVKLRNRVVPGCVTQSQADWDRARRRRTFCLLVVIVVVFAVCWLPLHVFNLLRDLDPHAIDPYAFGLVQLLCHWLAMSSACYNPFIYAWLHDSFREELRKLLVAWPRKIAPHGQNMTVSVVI
Summary of the method: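 GPR10-transfected CHO cells (40-80 thousand/well) incubated 60 min at room temperature with 5×10^-11 mol·l^-1 human 125I-PrRP31 and unlabeled analog at 10^-11 to 10^-4 mol·l^-1 in Tris binding buffer pH 7.4. Cells solubilized in 0.1 mol/l NaOH, γ-counted; one-site nonlinear regression fit.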

C57BL/6 mice = test: Food intake in fasted mice after SC injection; format: in vivo; details: 5 mg/kg SC, 45 min after injection
Protocol: NMRI mice, C57BL/6 mice, and Wistar rats (AnLab, Prague, Czech Republic) were housed in a temperature of 23° C. and a daily cycle of 12 h light and dark (light from 6:00). They were given ad libitum water and a standard chow diet that contained 25, 9 and 66% of calories of protein, fat and carbohydrate respectively. Energy content of the feed was 3.4 kcal/g (St-1, Mlýn Kocanda, Czech Republic). Db/db mice and their controls (C57BL/6 background) were obtained from Taconic (Denmark), housed under the same conditions as described above, and fed by Altromin (Taconic, Denmark). ZDF-Lepr^fa/Crl, diabetic fa/fa male rats were obtained from Charles River (France), housed under same conditions as described above, and fed with a Purina 5008 diet (IPS Product Supplies Limited, UK). All experiments followed the ethical guidelines for animal experiments and the law of the Czech Republic Nr. 246/1992.
In experiments with C57BL/6 mice or Wistar rats, food intake was measured with overnight fasted animals in individual cages. Food was withdrawn 17 hours prior to injection of lipidated analog of prolactin releasing peptide (PrRP); free access to water was maintained. The administration of either saline, PrRP, or lipidated analogs was performed by SC injection at doses of 1-10 mg/kg (which corresponded to a volume of 0.2 ml/mouse and 0.1 ml/100 g weight of rat). Fifteen minutes after the lipidated analog of prolactin releasing peptide (PrRP) administration, the mice were given pre-weighed food. The food was then weighed every 30 minutes for 5-10 hours. The administration of each dose was performed at least twice, and each group of mice consisted of at least 6 mice.

Structure (SMILES)	% of PrRP31, RC-4B/C rat pituitary cells (rat PrRP receptor) [%]	% of PrRP31, GPR10 human receptor transfected in CHO cells [1] [%]	Food intake in mice % of saline-treated group (C57BL/6 mice) [%]
CCCCCCCCCCCC(=O)N[C@@H](CO)C(=O)N[C@@H](CCCNC(=N)N)C(=O)N[C@@H](C)C(=O)N[C@@H](Cc1c[nH]cn1)C(=O)N[C@@H](CCC(N)=O)C(=O)N[C@@H](Cc1c[nH]cn1)C(=O)N[C@@H](CO)C(=O)N[C@@H](CCCC)C(=O)N[C@@H](CCC(=O)O)C(=O)N[C@H](C(=O)N[C@@H](CCCNC(=N)N)C(=O)N[C@H](C(=O)N1CCC[C@H]1C(=O)N[C@@H](CC(=O)O)C(=O)N[C@H](C(=O)N[C@@H](CC(N)=O)C(=O)N1CCC[C@H]1C(=O)N[C@@H](C)C(=O)N[C@@H](Cc1c[nH]c2ccccc12)C(=O)N[C@@H](Cc1ccc(O)cc1)C(=O)N[C@H](C(=O)NCC(=O)N[C@@H](CCCNC(=N)N)C(=O)NCC(=O)N[C@H](C(=O)N[C@@H](CCCNC(=N)N)C(=O)N1CCC[C@H]1C(=O)N[C@H](C(=O)NCC(=O)N[C@@H](CCCNC(=N)N)C(=O)N[C@@H](Cc1ccccc1)C(N)=O)C(C)C)[C@@H](C)CC)[C@@H](C)O)[C@@H](C)CC)[C@@H](C)O)[C@@H](C)O [Analog 6] (Lauroyl-SRAHQHS[Nle]ETRTPDINPAWYTGRGIRPVGRF-NH2)	1264	327	22
CCCCCCCCCCCCCC(=O)N[C@@H](CO)C(=O)N[C@@H](CCCNC(=N)N)C(=O)N[C@@H](C)C(=O)N[C@@H](Cc1c[nH]cn1)C(=O)N[C@@H](CCC(N)=O)C(=O)N[C@@H](Cc1c[nH]cn1)C(=O)N[C@@H](CO)C(=O)N[C@@H](CCCC)C(=O)N[C@@H](CCC(=O)O)C(=O)N[C@H](C(=O)N[C@@H](CCCNC(=N)N)C(=O)N[C@H](C(=O)N1CCC[C@H]1C(=O)N[C@@H](CC(=O)O)C(=O)N[C@H](C(=O)N[C@@H](CC(N)=O)C(=O)N1CCC[C@H]1C(=O)N[C@@H](C)C(=O)N[C@@H](Cc1c[nH]c2ccccc12)C(=O)N[C@@H](Cc1ccc(O)cc1)C(=O)N[C@H](C(=O)NCC(=O)N[C@@H](CCCNC(=N)N)C(=O)NCC(=O)N[C@H](C(=O)N[C@@H](CCCNC(=N)N)C(=O)N1CCC[C@H]1C(=O)N[C@H](C(=O)NCC(=O)N[C@@H](CCCNC(=N)N)C(=O)N[C@@H](Cc1ccccc1)C(N)=O)C(C)C)[C@@H](C)CC)[C@@H](C)O)[C@@H](C)CC)[C@@H](C)O)[C@@H](C)O [Analog 7] (Myristoyl-SRAHQHS[Nle]ETRTPDINPAWYTGRGIRPVGRF-NH2)	714	548	3
CCCCCCCCCCCCCCCC(=O)N[C@@H](CO)C(=O)N[C@@H](CCCNC(=N)N)C(=O)N[C@@H](C)C(=O)N[C@@H](Cc1c[nH]cn1)C(=O)N[C@@H](CCC(N)=O)C(=O)N[C@@H](Cc1c[nH]cn1)C(=O)N[C@@H](CO)C(=O)N[C@@H](CCCC)C(=O)N[C@@H](CCC(=O)O)C(=O)N[C@H](C(=O)N[C@@H](CCCNC(=N)N)C(=O)N[C@H](C(=O)N1CCC[C@H]1C(=O)N[C@@H](CC(=O)O)C(=O)N[C@H](C(=O)N[C@@H](CC(N)=O)C(=O)N1CCC[C@H]1C(=O)N[C@@H](C)C(=O)N[C@@H](Cc1c[nH]c2ccccc12)C(=O)N[C@@H](Cc1ccc(O)cc1)C(=O)N[C@H](C(=O)NCC(=O)N[C@@H](CCCNC(=N)N)C(=O)NCC(=O)N[C@H](C(=O)N[C@@H](CCCNC(=N)N)C(=O)N1CCC[C@H]1C(=O)N[C@H](C(=O)NCC(=O)N[C@@H](CCCNC(=N)N)C(=O)N[C@@H](Cc1ccccc1)C(N)=O)C(C)C)[C@@H](C)CC)[C@@H](C)O)[C@@H](C)CC)[C@@H](C)O)[C@@H](C)O [Analog 8] (Palmitoyl-SRAHQHS[Nle]ETRTPDINPAWYTGRGIRPVGRF-NH2)	967	128	7
CCCCCCCCCCCCCCCCCC(=O)N[C@@H](CO)C(=O)N[C@@H](CCCNC(=N)N)C(=O)N[C@@H](C)C(=O)N[C@@H](Cc1c[nH]cn1)C(=O)N[C@@H](CCC(N)=O)C(=O)N[C@@H](Cc1c[nH]cn1)C(=O)N[C@@H](CO)C(=O)N[C@@H](CCCC)C(=O)N[C@@H](CCC(=O)O)C(=O)N[C@H](C(=O)N[C@@H](CCCNC(=N)N)C(=O)N[C@H](C(=O)N1CCC[C@H]1C(=O)N[C@@H](CC(=O)O)C(=O)N[C@H](C(=O)N[C@@H](CC(N)=O)C(=O)N1CCC[C@H]1C(=O)N[C@@H](C)C(=O)N[C@@H](Cc1c[nH]c2ccccc12)C(=O)N[C@@H](Cc1ccc(O)cc1)C(=O)N[C@H](C(=O)NCC(=O)N[C@@H](CCCNC(=N)N)C(=O)NCC(=O)N[C@H](C(=O)N[C@@H](CCCNC(=N)N)C(=O)N1CCC[C@H]1C(=O)N[C@H](C(=O)NCC(=O)N[C@@H](CCCNC(=N)N)C(=O)N[C@@H](Cc1ccccc1)C(N)=O)C(C)C)[C@@H](C)CC)[C@@H](C)O)[C@@H](C)CC)[C@@H](C)O)[C@@H](C)O [Analog 9] (Stearoyl-SRAHQHS[Nle]ETRTPDINPAWYTGRGIRPVGRF-NH2)	514	7	3.5
CCCCCCCCCCCCCCCC(=O)N[C@@H](CO)C(=O)N[C@@H](CCCNC(=N)N)C(=O)N[C@@H](C)C(=O)N[C@@H](Cc1c[nH]cn1)C(=O)N[C@@H](CCC(N)=O)C(=O)N[C@@H](Cc1c[nH]cn1)C(=O)N[C@@H](CO)C(=O)N[C@@H](CCCC)C(=O)N[C@@H](CCC(=O)O)C(=O)N[C@H](C(=O)N[C@@H](CCCNC(=N)N)C(=O)N[C@H](C(=O)N1CCC[C@H]1C(=O)N[C@@H](CC(=O)O)C(=O)N[C@H](C(=O)N[C@@H](CC(N)=O)C(=O)N1CCC[C@H]1C(=O)N[C@@H](C)C(=O)N[C@@H](Cc1c[nH]c2ccccc12)C(=O)N[C@@H](Cc1ccc(O)cc1)C(=O)N[C@H](C(=O)NCC(=O)N[C@@H](CCCNC(=N)N)C(=O)NCC(=O)N[C@H](C(=O)N[C@@H](CCCNC(=N)N)C(=O)N1CCC[C@H]1C(=O)N[C@H](C(=O)NCC(=O)N[C@@H](CCCNC(=N)N)C(=O)N[C@@H](Cc1cccc2ccccc12)C(N)=O)C(C)C)[C@@H](C)CC)[C@@H](C)O)[C@@H](C)CC)[C@@H](C)O)[C@@H](C)O [Analog 12] (Palmitoyl-SRAHQHS[Nle]ETRTPDINPAWYTGRGIRPVGR[1Nal]-NH2)	111	91	13
